According to BindingDB's records for patent US12338253 (Applied Pharmaceutical Science, 2025):

Molecular target: Proto-oncogene tyrosine-protein kinase receptor Ret [V804M] (Human, UniProt P07949, V804M)
Assay: Kinase Activity Assay

Sequence of Proto-oncogene tyrosine-protein kinase receptor Ret [V804M] (P07949 29-1114 V804M limits assumed): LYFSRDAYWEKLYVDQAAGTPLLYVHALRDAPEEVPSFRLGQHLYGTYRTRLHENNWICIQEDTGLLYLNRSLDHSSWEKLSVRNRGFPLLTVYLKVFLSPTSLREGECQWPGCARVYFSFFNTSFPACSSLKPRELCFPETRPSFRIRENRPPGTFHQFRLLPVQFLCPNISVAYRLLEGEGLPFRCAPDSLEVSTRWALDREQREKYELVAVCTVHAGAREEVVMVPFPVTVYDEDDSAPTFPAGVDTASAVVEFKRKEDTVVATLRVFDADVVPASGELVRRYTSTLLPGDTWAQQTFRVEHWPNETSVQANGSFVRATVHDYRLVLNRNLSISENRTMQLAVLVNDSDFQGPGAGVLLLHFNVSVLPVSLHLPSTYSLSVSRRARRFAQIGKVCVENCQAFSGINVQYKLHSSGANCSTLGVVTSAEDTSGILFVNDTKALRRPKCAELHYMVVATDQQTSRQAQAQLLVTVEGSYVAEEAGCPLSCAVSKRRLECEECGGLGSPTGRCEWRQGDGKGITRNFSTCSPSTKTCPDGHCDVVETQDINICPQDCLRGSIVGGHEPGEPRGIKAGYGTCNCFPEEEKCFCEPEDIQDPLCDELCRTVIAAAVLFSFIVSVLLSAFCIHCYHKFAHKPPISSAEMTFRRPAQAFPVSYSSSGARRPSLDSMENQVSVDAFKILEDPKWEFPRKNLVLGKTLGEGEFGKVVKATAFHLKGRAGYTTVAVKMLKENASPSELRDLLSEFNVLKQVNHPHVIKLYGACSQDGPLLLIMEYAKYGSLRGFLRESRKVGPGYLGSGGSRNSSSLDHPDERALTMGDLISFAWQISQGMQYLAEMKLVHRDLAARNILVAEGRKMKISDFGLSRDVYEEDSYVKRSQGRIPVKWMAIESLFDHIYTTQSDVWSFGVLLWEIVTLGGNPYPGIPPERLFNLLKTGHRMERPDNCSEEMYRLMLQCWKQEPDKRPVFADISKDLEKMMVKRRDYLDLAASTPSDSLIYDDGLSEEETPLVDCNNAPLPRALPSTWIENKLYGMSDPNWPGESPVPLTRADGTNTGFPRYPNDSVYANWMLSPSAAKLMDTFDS

Work on COc1ccc(CN2C3CC2CN(c2ccc(-c4cc(OC[C@@H]5CNCCO5)cn5nc6[nH]ncc6c45)cn2)C3)cn1 [US12338253, Compound 17] yielded an IC50 of 0.1 nM.
